Assay results reported in US20110045101A1, “FUNGICIDAL SUBSTITUTED AZOLES” (E.I. Du Pont De Nemours and Company, priority 2009, published 2011).
Marks after values point to notes of the source that are not given here.

How the values were obtained:
Type in all cases: in vivo
Settings in all cases: 100 = 100% disease control
[1] = tested on: Puccinia recondita f. sp. tritici; experiment: Test I: wheat leaf rust on wheat seedlings, sprayed the day before inoculation, visual disease rating
In short: (§1)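 Plants received a run-off spray at 200 ppm (equivalent to 500 g/ha) or, for starred values, 40 ppm. Formulation used acetone at 3% of volume in a 50/50 acetone/water mix carrying 250 ppm Trem® 014.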

Septoria nodorum = experiment: Test F: wheat glume blotch on wheat seedlings, sprayed the day before inoculation, visual disease rating
In short: as §1

[2] = tested on: Puccinia recondita f. sp. tritici; experiment: Test H: wheat leaf rust, test suspension sprayed after inoculation of wheat seedlings, visual disease rating
In short: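 Wheat seedlings inoculated with P. recondita spores, held 24 h saturated at 20 °C, then 2 days in growth chamber at 20 °C; compound suspension (acetone/water with Trem 014) sprayed to run-off afterwards. Rated visually; 200 ppm (≈500 g/ha) unless marked *, which denotes 40 ppm.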

Alternaria solani = experiment: Test D: tomato early blight, sprayed the day before inoculation, visual disease rating
In short: as §1

Septoria tritici = experiment: Test G: wheat leaf blotch on wheat seedlings, sprayed the day before inoculation, visual disease rating
In short: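 Wheat seedlings were sprayed with compound suspensions, 200 ppm unless starred (40 ppm). After next-day spore inoculation, plants spent 48 h saturated at 24° C, then 19 days at 20° C, when disease was rated visually.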

[3] = tested on: Erysiphe graminis f. sp. tritici; experiment: Test J: wheat powdery mildew on wheat seedlings, sprayed the day before inoculation, visual disease rating
In short: as §1

Botrytis cinerea = experiment: Test C: tomato Botrytis on tomato seedlings, sprayed the day before inoculation, visual disease rating
In short: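 Rate: 200 ppm sprayed to run-off, corresponding to 500 g/ha; flagged values used 40 ppm. Vehicle was aqueous acetone (1:1) plus 250 ppm surfactant, compounds predissolved in acetone at 3% of volume. Plants were tomato seedlings.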

[4] = 200 ppm, 0 = no control relative to controls

SMILES	Test I disease control rating [1, 4]	Test F disease control rating (Septoria nodorum; [4])	Test H disease control rating [2, 4]	Test D disease control rating (Alternaria solani; [4])	Test G disease control rating (Septoria tritici; [4])	Test J disease control rating [3, 4]	Test C disease control rating (Botrytis cinerea; [4])	Test G disease control rating (Septoria tritici; 40 ppm (marked *), 0 = no control)	Test I disease control rating ([1]; 40 ppm (marked *))	Test F disease control rating (Septoria nodorum; 40 ppm (marked *))	Test H disease control rating ([2]; 40 ppm (marked *))	Test D disease control rating (Alternaria solani; 40 ppm (marked *))	Test G disease control rating (Septoria tritici; 40 ppm (marked *))	Test J disease control rating ([3]; 40 ppm (marked *))	Test C disease control rating (Botrytis cinerea; 40 ppm (marked *))
COc1cc(F)c(-c2c(Cl)nc(Cl)n2-c2ccccc2)c(F)c1Cl [compound 428]	100%	0%	0%	100%	99%	100%	100%	–	–	–	–	–	–	–	–
COc1cc(F)c(-c2c(Cl)nc(Br)n2-c2ccccc2)c(F)c1Br [compound 429]	98%	0%	0%	77%	99%	98%	99%	–	–	–	–	–	–	–	–
COc1cc(F)c(-c2c(-c3ccc(I)cc3)c(OC)nn2C)c(F)c1 [compound 431]	0%	0%	9%	9%	98%	0%	9%	–	–	–	–	–	–	–	–
COc1nn(C)c(-c2ccc(F)cc2Cl)c1-c1ccc(I)cc1 [compound 432]	0%	0%	0%	0%	25%	0%	33%	–	–	–	–	–	–	–	–
Fc1cc(-n2c(Cl)nc(Cl)c2-c2cccc(Br)n2)ccc1Cl [compound 433]	0%	0%	0%	0%	92%	0%	50%	–	–	–	–	–	–	–	–
COc1ccc(-c2c(Cl)nc(Cl)n2-c2ccc(Cl)c(F)c2)cn1 [compound 434]	68%	0%	0%	9%	99%	76%	96%	–	–	–	–	–	–	–	–
COc1cncc(F)c1-c1c(Cl)nc(Cl)n1-c1ccc(Cl)c(F)c1 [compound 435]	68%	0%	0%	24%	99%	0%	99%	–	–	–	–	–	–	–	–
Fc1cc(-n2c(Cl)nc(Cl)c2-c2cnc3ccccc3c2)ccc1Cl [compound 436]	0%	0%	0%	98%	81%	0%	87%	–	–	–	–	–	–	–	–
COc1cc(Cl)c(-c2c(Cl)nc(Cl)n2-c2ccc(Cl)c(F)c2)c(Cl)c1 [compound 437]	98%	60%	0%	80%	100%	98%	99%	–	–	–	–	–	–	–	–
COc1cc(Cl)cc(Cl)c1-c1c(Cl)nc(Cl)n1-c1ccc(Cl)c(F)c1 [compound 438]	0%	0%	0%	0%	–	0%	0%	86* %	–	–	–	–	–	–	–
Fc1cc(-n2c(Br)nc(Br)c2-c2c(F)ccc(F)c2Cl)ccc1Cl [compound 459]	–	–	–	–	–	–	–	–	98* %	0* %	9* %	63* %	95* %	98* %	99* %
Cc1ccc(-n2c(Br)nc(Br)c2-c2c(F)ccc(F)c2Cl)cc1 [compound 460]	–	–	–	–	–	–	–	–	93* %	0* %	0* %	85* %	97* %	96* %	99* %
Cc1ccc(-n2c(Br)nc(Br)c2-c2c(F)ccc(F)c2F)cc1 [compound 461]	–	–	–	–	–	–	–	–	97* %	0* %	0* %	99* %	94* %	98* %	99* %
Fc1ccc(-n2c(Br)nc(Br)c2-c2c(F)cc(F)cc2F)cc1 [compound 462]	–	–	–	–	–	–	–	–	78* %	0* %	0* %	100* %	96* %	99* %	100* %
Fc1cc(-n2c(Cl)nc(Br)c2-c2c(F)ccc(F)c2Cl)ccc1Cl [compound 463]	–	–	–	–	–	–	–	–	100* %	0* %	0* %	99* %	95* %	99* %	99* %
Cc1ccc(-n2c(Cl)nc(Br)c2-c2c(F)ccc(F)c2Cl)cc1 [compound 464]	–	–	–	–	–	–	–	–	99* %	0* %	0* %	89* %	72* %	100* %	99* %
Cc1ccc(-n2c(Cl)nc(Br)c2-c2c(F)ccc(F)c2F)cc1 [compound 465]	–	–	–	–	–	–	–	–	99* %	0* %	0* %	99* %	88* %	99* %	100* %
Cc1nc(Cl)n(-c2c(F)cccc2F)c1-c1ccc(Cl)cc1 [compound 466]	–	–	–	–	–	–	–	–	93* %	0* %	0* %	100* %	82* %	100* %	99* %
COCc1nc(Cl)n(-c2c(F)cccc2F)c1-c1ccc(Cl)cc1 [compound 467]	–	–	–	–	–	–	–	–	71* %	0* %	0* %	0* %	32* %	96* %	94* %
Cc1nc(Cl)c(-c2c(F)cccc2F)n1-c1ccc2ncccc2c1 [compound 468]	–	–	–	–	–	–	–	–	91* %	0* %	0* %	99* %	96* %	58* %	99* %
